# Source: patent US20250257051A1, “SUBSTITUTED PYRIMIDINE COMPOUNDS AS TYK2 INHIBITORS” (1910 Genetics Inc., priority 2022, published 2025)
# Counter-ions that a name gives are not always drawn.
# Target: human TYK2 (JH2domain-pseudokinase) (Homo sapiens (Human), UniProt P29597)
# Assay: TYK2 JH2 Domain Binding Assay (KINOMEscan competition binding)
# Details: KINOMEscan; 11-point 3-fold dilution, top concentration 30,000 nM; Kd measurements in duplicate; read-out: TYK JH2 (Kd)
# Method: Binding constants for compounds disclosed herein may be determined by the KINOMEscan® assay developed by DiscoveRx. KINOMEscan® is based on a competition binding assay that quantitatively measures the ability of a compound to compete with an immobilized, active-site directed ligand. The assay is performed by combining three components: DNA-tagged kinase; immobilized ligand; and a test compound. The ability of the test compound to compete with the immobilized ligand is measure via quantitative PCR of the DNA tag.
# Binding constants for compounds disclosed herein against the JH2 domain are determined by the following protocol for a KINOMEscan® assay (DiscoveRx). A fusion protein of a partial length construct of human TYK2 (JH2domain-pseudokinase) (amino acids G556 to D888 based on reference sequence NP 003322.3) and the DNA binding domain of NFkB is expressed in transiently transfected HEK293 cells. From these HEK 293 cells, extracts are prepared in M-PER extraction buffer (Pierce) in the presence of Protease Inhibitor Cocktail Complete (Roche) and Phosphatase Inhibitor Cocktail Set II (Merck) per manufacturers' instructions. The TYK2 (JH2domain-pseudokinase) fusion protein is labeled with a chimeric double-stranded DNA tag containing the NFkB binding site (5′-GGGAATTCCC-3′) fused to an amplicon for qPCR readout, which is added directly to the expression extract (the final concentration of DNA-tag in the binding reaction is 0.1 nM).
# Streptavidin-coated magnetic beads (Dynal M280) are treated with a biotinylated small molecule ligand for 30 minutes at room temperature to generate affinity resins for the binding assays. The liganded beads are blocked with excess biotin and washed with blocking buffer (SeaBlock (Pierce), 1% BSA, 0.05% Tween 20, 1 mM DTT) to remove unbound ligand and to reduce nonspecific binding.
# Extracts are used directly in binding assays without any enzyme purification steps at a >10,000-fold overall stock dilution (final DNA tagged enzyme concentration<0.1 nM). Extracts are loaded with DNA-tag and diluted into the binding reaction in a two-step process. First extracts are diluted 1:100 in 1× binding buffer (PBS/0.05% Tween 20/10 mM DTT/0.1% BSA/[…] sonicated salmon sperm DNA) containing 10 nM DNA-tag. This dilution is allowed to equilibrate at room temperature for 15 minutes and then subsequently diluted 1:100 in 1× binding buffer. Test compounds are prepared as 111× stocks in 100% DMSO. Kds are determined using an 11-point 3-fold compound dilution series with three DMSO control points. All compounds for Kd measurements are distributed by acoustic transfer (non-contact dispensing) in 100% DMSO. The compounds are then diluted directly into the assays such that the final concentration of DMSO is 0.9%. All reactions performed in polypropylene 384-well plates. Each is a final volume of 0.02 mL. Assays are incubated with shaking for 1 hour at room temperature. Then the beads are pelleted and washed with wash buffer (lx PBS, 0.05% Tween 20) to remove displaced kinase and test compound. The washed beads are re-suspended in elution buffer (lx PBS, 0.05% Tween 20, 0.5 μM non-biotinylated affinity ligand) and incubated at room temperature with shaking for 30 minutes. The kinase concentration in the eluates is measured by qPCR. qPCR reactions are assembled by adding 2.5 μL of kinase eluate to 7.5 μL of qPCR master mix containing 0.15 μM amplicon primers and 0.15 μM amplicon probe. The qPCR protocol consists of a 10-minute hot start at 95° C., followed by 35 cycles of 95° C. for 15 seconds, 60° C. for 1 minute.
# Test compounds are prepared as 111× stocks in 100% DMSO. Kds are determined using an 11-point 3-fold compound dilution series with three DMSO control points. All compounds for Kd measurements are distributed by acoustic transfer (non-contact dispensing) in 100% DMSO. The compounds are then diluted directly into the assays such that the final concentration of DMSO is 0.9%. […]
# human TYK2 (JH2domain-pseudokinase), sequence (P29597 556-888): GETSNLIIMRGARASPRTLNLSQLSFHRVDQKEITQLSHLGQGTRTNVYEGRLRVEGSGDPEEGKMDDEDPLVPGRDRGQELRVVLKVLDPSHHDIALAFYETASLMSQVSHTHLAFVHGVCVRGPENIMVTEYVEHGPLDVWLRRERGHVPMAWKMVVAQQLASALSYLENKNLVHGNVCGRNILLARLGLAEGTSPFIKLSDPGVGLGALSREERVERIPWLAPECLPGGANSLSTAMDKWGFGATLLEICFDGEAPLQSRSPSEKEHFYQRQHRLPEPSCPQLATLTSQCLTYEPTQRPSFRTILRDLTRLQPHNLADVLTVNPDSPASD
row,SMILES,Kd
1,"CNC(=O)[C@@H]1CCN(c2ncc(C(N)=O)c(Nc3cccc(-c4ncc(F)cn4)c3OC)n2)C1 [Compound 53, (R)-4-((3-(5-fluoropyrimidin-2-yl)-2-methoxyphenyl)amino)-2-(3-(methylcarbamoyl)pyrrolidin-1-yl)pyrimidine-5-carboxamide]",0.00011 µM
2,"O=C(NO)c1cnc(N2CCCC2)nc1Nc1ccc(C2CC2)nc1 [Compound 54, 4-((6-cyclopropylpyridin-3-yl)amino)-N-hydroxy-2-(pyrrolidin-1-yl)pyrimidine-5-carboxamide]",0.16 µM
3,"CNC(=O)c1cnc(N2CCC(C(=O)NC)C2)nc1NC(=O)c1n[nH]c2c(OC)cccc12 (stereo not shown) [Compound 56, 7-methoxy-N-(5-(methylcarbamoyl)-2-(3-(methylcarbamoyl)pyrrolidin-1-yl)pyrimidin-4-yl)-1H-indazole-3-carboxamide]",11 µM
4,"COc1c(Nc2nc(N3CCNCC3C)ncc2C(N)=O)cccc1-c1ncc(F)cn1 (stereo not shown) [Compound 57, 4-((3-(5-fluoropyrimidin-2-yl)-2-methoxyphenyl)amino)-2-(2-methylpiperazin-1-yl)pyrimidine-5-carboxamide]",0.049 µM
5,"COc1ccccc1Nc1nc(N2CCCN(C(C)=O)CC2)ncc1C(N)=O [Compound 58, 2-(4-acetyl-1,4-diazepan-1-yl)-4-((2-methoxyphenyl)amino)pyrimidine-5-carboxamide]",1.8 µM
6,"COc1ccccc1Nc1nc(N2CCN(C(C)=O)CC2C)ncc1C(N)=O (stereo not shown) [Compound 59, 2-(4-acetyl-2-methylpiperazin-1-yl)-4-((2-methoxyphenyl)amino)pyrimidine-5-carboxamide]",0.27 µM
7,"COc1c(Nc2nc(N3CCN(C(C)=O)CC3C)ncc2C(N)=O)cccc1-c1ncc(F)cn1 (stereo not shown) [Compound 60, 2-(4-acetyl-2-methylpiperazin-1-yl)-4-((3-(5-fluoropyrimidin-2-yl)-2-methoxyphenyl)amino)pyrimidine-5-carboxamide]",0.002 µM
8,"CNC(=O)c1cnc(N2CCN(C(C)=O)CC2C)nc1Nc1cccc(-c2ncc(F)cn2)c1OC (stereo not shown) [Compound 61, 2-(4-acetyl-2-methylpiperazin-1-yl)-4-((3-(5-fluoropyrimidin-2-yl)-2-methoxyphenyl)amino)-N-methylpyrimidine-5-carboxamide]",0.015 µM
9,"CC(=O)N1CCCN(c2ncc(C(N)=O)c(Nc3ccc(C4CC4)nc3)n2)CC1 [Compound 64, 2-(4-acetyl-1,4-diazepan-1-yl)-4-((6-cyclopropylpyridin-3-yl)amino)pyrimidine-5-carboxamide]",1.4 µM
10,"CNC(=O)c1cnc(N2CCCN(C(=O)OC(C)(C)C)CC2)nc1Nc1ccccc1S(C)(=O)=O [Compound 66, Tert-Butyl 4-(S-(methylcarbamoyl)-4-((2-(methylsulfonyl)phenyl)amino)pyrimidin-2-yl)-1,4-diazepane-1-carboxylate]",6.3 µM
11,"CNC(=O)c1cnc(N2CCCNCC2)nc1Nc1ccccc1S(C)(=O)=O [Compound 67, 2-(1,4-diazepan-1-yl)-N-methyl-4-((2-(methylsulfonyl)phenyl)amino)pyrimidine-5-carboxamide hydrochloride]",3.4 µM
12,"CNC(=O)c1cnc(N2CCC(C(=O)O)CC2)nc1Nc1ccccc1S(C)(=O)=O [Compound 68, 1-(5-(methylcarbamoyl)-4-((2-(methylsulfonyl)phenyl)amino)pyrimidin-2-yl)piperidine-4-carboxylic Acid]",0.16 µM
13,"CNC(=O)c1cnc(N2CCNCC2C)nc1Nc1ccccc1S(C)(=O)=O (stereo not shown) [Compound 69, N-methyl-2-(2-methylpiperazin-1-yl)-4-((2-(methylsulfonyl)phenyl)amino)pyrimidine-5-carboxamide Hydrochloride]",1.8 µM
14,"CNC(=O)c1cnc(N2CCN(C(C)=O)CC2C)nc1Nc1ccc(C2CC2)nc1 (stereo not shown) [Compound 70, 2-(4-acetyl-2-methylpiperazin-1-yl)-4-((6-cyclopropylpyridin-3-yl)amino)-N-methylpyrimidine-5-carboxamide]",4 µM
15,"COc1c(Nc2nc(N3CCCN(C(=O)OC(C)(C)C)CC3)ncc2C(N)=O)cccc1-c1ncc(F)cn1 [Compound 71, tert-butyl 4-(S-carbamoyl-4-((3-(5-fluoropyrimidin-2-yl)-2-methoxyphenyl)amino)pyrimidin-2-yl)-1,4-diazepane-1-carboxylate]",0.47 µM
16,"CNC(=O)c1cnc(N2CCCN(C(=O)OC(C)(C)C)CC2)nc1Nc1cccc(-c2ncc(F)cn2)c1OC [Compound 72, Tert-Butyl 4-(4-((3-(5-fluoropyrimidin-2-yl)-2-methoxyphenyl)amino)-5-(methylcarbamoyl)pyrimidin-2-yl)-1,4-diazepane-1-carboxylate]",4.5 µM
17,"COc1c(Nc2nc(N3CCCNCC3)ncc2C(N)=O)cccc1-c1ncc(F)cn1 [Compound 73, 2-(1,4-diazepan-1-yl)-4-((3-(5-fluoropyrimidin-2-yl)-2-methoxyphenyl)amino)pyrimidine-5-carboxamide Hydrochloride]",0.15 µM
18,"CNC(=O)c1cnc(N2CCCNCC2)nc1Nc1cccc(-c2ncc(F)cn2)c1OC [Compound 74, 2-(1,4-diazepan-1-yl)-4-((3-(5-fluoropyrimidin-2-yl)-2-methoxyphenyl)amino)-N-methylpyrimidine-5-carboxamide Hydrochloride]",0.8 µM

# The next lines start with the values.
row,Kd,SMILES
1,1.3 µM,"CNC(=O)c1cnc(N2CCCN(C(C)=O)CC2)nc1Nc1ccccc1S(C)(=O)=O [Compound 75, 2-(4-acetyl-1,4-diazepan-1-yl)-N-methyl-4-((2-(methylsulfonyl)phenyl)amino)pyrimidine-5-carboxamide]"
2,0.21 µM,"CNC(=O)c1cnc(N2CCN(C(C)=O)CC2C)nc1Nc1ccccc1S(C)(=O)=O (stereo not shown) [Compound 76, 2-(4-acetyl-2-methylpiperazin-1-yl)-N-methyl-4-((2-(methylsulfonyl)phenyl)amino)pyrimidine-5-carboxamide]"
3,0.17 µM,"CNC(=O)c1cnc(N2CCCN(C(C)=O)CC2)nc1Nc1cccc(-c2ncc(F)cn2)c1OC [Compound 77, 2-(4-acetyl-1,4-diazepan-1-yl)-4-((3-(5-fluoropyrimidin-2-yl)-2-methoxyphenyl)amino)-N-methylpyrimidine-5-carboxamide]"
4,0.33 µM,"CS(=O)(=O)c1ccccc1Nc1nc(N2CCC(C(=O)O)CC2)ncc1C(N)=O [Compound 78, 1-(5-carbamoyl-4-((2-(methylsulfonyl)phenyl)amino)pyrimidin-2-yl)piperidine-4-carboxylic Acid]"
5,1.7 µM,"CS(=O)(=O)c1ccccc1Nc1nc(N2CCCNCC2)ncc1C(N)=O [Compound 79, 2-(1,4-diazepan-1-yl)-4-((2-(methylsulfonyl)phenyl)amino)pyrimidine-5-carboxamide hydrochloride]"
6,0.95 µM,"CC(=O)N1CCCN(c2ncc(C(N)=O)c(Nc3ccccc3S(C)(=O)=O)n2)CC1 [Compound 80, 2-(4-acetyl-1,4-diazepan-1-yl)-4-((2-(methylsulfonyl)phenyl)amino)pyrimidine-5-carboxamide]"
7,0.37 µM,"COc1c(Nc2nc(N3CCCN(C(C)=O)CC3)ncc2C(N)=O)cccc1-c1ncc(F)cn1 [Compound 81, 2-(4-acetyl-1,4-diazepan-1-yl)-4-((3-(5-fluoropyrimidin-2-yl)-2-methoxyphenyl)amino)pyrimidine-5-carboxamide]"

# Same assay, conditions: Table 4: pyrimidinyl compound of Formula I versus compounds with a different heteroaryl core; read-out: TYK JH2 (Kd)
row,Kd,SMILES
1,0.17 µM,CNC(=O)c1cnc(N2CCC(C(=O)NC)C2)nc1Nc1ccc(C2CC2)nc1 (stereo not shown) [drawing 147]
2,10 µM,CNC(=O)c1cnc(N2CCC(C(=O)NC)C2)cc1Nc1ccc(C2CC2)nc1 (stereo not shown) [reference compound]
3,31 µM,CNC(=O)c1nnc(N2CCC(C(=O)NC)C2)cc1Nc1ccc(C2CC2)nc1 (stereo not shown) [reference compound]
